23 molecules from ChEMBL document CHEMBL5291721, “A preclinical secondary pharmacology resource illuminates target-adverse drug reaction associations of marketed drugs” (Nat Commun, 2023) can be followed below.

Test [1] has as its target Voltage-dependent N-type calcium channel subunit alpha-1B (Rattus norvegicus, UniProt Q02294). The test is classed as functional.
The target in test [2] is Cannabinoid receptor 1 (Homo sapiens, UniProt P21554). The test is classed as functional.
The target of test [3] is T1, Corticotropin-releasing factor receptor 2 (Homo sapiens, UniProt Q13324).
T1 sequence (Q13324 whole entry): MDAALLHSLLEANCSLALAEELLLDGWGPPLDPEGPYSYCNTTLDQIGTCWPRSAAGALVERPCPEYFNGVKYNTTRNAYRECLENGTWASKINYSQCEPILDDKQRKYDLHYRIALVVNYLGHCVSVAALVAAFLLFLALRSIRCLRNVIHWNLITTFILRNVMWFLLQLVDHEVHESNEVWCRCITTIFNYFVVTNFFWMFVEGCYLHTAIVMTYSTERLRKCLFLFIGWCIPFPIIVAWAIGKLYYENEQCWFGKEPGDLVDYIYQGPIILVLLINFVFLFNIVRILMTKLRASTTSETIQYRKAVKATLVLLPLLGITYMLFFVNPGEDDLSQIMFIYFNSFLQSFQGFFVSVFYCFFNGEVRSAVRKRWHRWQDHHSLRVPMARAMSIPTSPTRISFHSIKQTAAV

Test [4] concerns the target T2, D(4) dopamine receptor (Homo sapiens, UniProt P21917).
T2 sequence (P21917 whole entry): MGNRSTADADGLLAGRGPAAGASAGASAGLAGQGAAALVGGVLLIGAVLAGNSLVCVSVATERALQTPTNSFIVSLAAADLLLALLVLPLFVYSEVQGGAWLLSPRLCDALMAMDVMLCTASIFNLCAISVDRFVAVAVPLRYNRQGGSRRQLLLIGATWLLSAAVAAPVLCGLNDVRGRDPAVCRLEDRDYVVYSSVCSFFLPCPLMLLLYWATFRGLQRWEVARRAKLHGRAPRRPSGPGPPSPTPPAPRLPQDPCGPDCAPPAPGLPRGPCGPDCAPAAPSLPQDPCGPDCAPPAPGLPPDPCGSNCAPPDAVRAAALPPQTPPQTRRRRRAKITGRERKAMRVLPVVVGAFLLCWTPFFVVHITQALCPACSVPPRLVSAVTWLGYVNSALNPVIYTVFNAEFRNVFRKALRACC

The target in test [5] is Gamma-aminobutyric acid receptor subunit alpha-1/alpha-2/beta-2/gamma-2 (Homo sapiens, UniProt P14867+P18507+P47869+P47870). The test is classed as functional, cell-based.
In test [6] the target is Glucagon receptor (Homo sapiens, UniProt P47871).
Chain of Glucagon receptor (P47871 whole entry): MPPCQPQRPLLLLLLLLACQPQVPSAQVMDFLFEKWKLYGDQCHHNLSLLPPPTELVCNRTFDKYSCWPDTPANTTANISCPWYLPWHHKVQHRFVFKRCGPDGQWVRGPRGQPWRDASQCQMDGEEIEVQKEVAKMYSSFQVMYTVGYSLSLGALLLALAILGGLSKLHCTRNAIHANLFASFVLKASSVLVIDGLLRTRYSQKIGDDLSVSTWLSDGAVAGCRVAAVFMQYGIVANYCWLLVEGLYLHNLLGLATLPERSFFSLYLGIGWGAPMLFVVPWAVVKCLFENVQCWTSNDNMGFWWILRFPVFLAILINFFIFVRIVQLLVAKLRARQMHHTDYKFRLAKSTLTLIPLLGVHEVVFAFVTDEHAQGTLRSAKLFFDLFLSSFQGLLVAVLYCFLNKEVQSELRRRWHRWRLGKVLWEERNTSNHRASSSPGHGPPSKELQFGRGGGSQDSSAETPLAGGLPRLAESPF
For test [7], the target named is T3, Gastric inhibitory polypeptide receptor (Homo sapiens, UniProt P48546).
T3 sequence (P48546 whole entry): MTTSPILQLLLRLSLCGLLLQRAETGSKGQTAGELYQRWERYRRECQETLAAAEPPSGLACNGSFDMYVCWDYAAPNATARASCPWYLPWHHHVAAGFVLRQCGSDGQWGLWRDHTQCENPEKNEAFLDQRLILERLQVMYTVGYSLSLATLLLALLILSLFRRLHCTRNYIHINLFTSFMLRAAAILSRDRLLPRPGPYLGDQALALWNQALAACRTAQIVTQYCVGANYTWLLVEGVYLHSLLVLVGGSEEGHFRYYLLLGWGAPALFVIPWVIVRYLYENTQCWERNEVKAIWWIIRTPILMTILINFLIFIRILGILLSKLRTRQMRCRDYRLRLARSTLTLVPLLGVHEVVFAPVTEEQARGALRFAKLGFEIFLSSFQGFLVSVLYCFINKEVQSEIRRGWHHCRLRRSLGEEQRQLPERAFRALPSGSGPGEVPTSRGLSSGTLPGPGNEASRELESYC

Test [8] deals with 5-hydroxytryptamine receptor 6 (Homo sapiens, UniProt P50406).
Chain of 5-hydroxytryptamine receptor 6 (P50406 whole entry): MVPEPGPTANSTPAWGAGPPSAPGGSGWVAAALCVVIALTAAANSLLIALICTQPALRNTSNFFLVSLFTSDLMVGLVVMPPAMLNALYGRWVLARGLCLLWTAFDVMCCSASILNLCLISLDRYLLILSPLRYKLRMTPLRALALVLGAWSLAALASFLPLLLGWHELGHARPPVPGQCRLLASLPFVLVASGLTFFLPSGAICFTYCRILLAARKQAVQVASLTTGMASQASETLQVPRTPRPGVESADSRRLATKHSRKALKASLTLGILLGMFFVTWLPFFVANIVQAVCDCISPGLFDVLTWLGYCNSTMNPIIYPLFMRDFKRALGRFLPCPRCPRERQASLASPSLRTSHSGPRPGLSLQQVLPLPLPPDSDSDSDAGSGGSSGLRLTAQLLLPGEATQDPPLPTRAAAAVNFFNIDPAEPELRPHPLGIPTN
In test [9] the target is 5-hydroxytryptamine receptor 7 (Homo sapiens, UniProt P34969).
Chain of 5-hydroxytryptamine receptor 7 (P34969 whole entry): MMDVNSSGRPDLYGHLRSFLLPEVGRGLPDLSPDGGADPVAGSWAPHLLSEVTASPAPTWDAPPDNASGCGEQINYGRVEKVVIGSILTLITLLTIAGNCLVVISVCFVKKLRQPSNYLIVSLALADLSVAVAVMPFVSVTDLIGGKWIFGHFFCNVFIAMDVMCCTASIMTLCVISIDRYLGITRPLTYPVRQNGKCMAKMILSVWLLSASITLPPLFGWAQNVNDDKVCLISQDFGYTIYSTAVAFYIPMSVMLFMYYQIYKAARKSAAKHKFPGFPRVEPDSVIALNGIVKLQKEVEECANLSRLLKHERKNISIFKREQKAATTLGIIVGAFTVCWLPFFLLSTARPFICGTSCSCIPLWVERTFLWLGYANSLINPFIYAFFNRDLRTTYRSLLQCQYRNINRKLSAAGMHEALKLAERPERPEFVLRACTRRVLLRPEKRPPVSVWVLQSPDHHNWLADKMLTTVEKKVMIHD
Test [10] concerns the target Sodium channel protein type 5 subunit alpha (Homo sapiens, UniProt Q14524). The test is classed as functional, cell-based.
Test [11] concerns the target T4, Androgen receptor (Rattus norvegicus, UniProt P15207).
T4 sequence (P15207 whole entry): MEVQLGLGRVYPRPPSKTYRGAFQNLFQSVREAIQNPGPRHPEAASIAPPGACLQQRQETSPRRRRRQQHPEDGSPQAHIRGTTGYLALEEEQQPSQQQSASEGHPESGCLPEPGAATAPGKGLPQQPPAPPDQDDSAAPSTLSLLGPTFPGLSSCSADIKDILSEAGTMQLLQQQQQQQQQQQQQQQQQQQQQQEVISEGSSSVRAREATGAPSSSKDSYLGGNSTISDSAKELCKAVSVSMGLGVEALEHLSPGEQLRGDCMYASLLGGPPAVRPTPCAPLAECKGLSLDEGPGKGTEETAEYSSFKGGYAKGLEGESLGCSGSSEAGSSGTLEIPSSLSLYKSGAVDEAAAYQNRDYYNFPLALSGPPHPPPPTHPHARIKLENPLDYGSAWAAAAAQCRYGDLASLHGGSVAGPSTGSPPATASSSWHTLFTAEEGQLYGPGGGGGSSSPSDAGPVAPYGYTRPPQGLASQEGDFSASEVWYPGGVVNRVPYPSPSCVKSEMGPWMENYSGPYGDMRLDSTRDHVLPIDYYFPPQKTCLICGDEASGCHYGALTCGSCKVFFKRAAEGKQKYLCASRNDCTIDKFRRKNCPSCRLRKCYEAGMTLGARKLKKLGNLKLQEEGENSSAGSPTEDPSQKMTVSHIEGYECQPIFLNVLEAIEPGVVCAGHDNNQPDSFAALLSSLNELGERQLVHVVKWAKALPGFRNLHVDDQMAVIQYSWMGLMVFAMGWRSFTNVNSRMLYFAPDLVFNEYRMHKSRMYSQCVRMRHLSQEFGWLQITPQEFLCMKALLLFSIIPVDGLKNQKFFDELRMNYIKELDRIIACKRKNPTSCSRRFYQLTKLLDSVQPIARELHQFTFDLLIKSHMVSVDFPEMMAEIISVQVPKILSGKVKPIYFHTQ

The target of test [12] is T5, Histamine H1 receptor (Homo sapiens, UniProt P35367). The test is classed as functional, cell-based.
T5 sequence (P35367 whole entry): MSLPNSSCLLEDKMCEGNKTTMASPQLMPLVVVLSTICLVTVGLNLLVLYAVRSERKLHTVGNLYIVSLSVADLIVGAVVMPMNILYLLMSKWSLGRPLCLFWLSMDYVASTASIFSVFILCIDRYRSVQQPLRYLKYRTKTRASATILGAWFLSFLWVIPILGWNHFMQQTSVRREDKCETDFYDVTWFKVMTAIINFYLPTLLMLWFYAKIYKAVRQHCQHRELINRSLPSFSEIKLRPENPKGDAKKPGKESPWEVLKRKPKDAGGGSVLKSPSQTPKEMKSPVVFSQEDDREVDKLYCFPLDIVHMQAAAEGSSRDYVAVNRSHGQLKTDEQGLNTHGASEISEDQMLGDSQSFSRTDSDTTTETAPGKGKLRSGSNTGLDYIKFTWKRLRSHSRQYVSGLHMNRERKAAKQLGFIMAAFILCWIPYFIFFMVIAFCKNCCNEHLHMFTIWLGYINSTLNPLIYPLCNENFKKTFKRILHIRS
Test [13] deals with T5, Histamine H1 receptor. The test is classed as functional, cell-based. This is another data set of the same source.
The target in test [14] is Substance-P receptor (Homo sapiens, UniProt P25103).
Chain of Substance-P receptor (P25103 whole entry): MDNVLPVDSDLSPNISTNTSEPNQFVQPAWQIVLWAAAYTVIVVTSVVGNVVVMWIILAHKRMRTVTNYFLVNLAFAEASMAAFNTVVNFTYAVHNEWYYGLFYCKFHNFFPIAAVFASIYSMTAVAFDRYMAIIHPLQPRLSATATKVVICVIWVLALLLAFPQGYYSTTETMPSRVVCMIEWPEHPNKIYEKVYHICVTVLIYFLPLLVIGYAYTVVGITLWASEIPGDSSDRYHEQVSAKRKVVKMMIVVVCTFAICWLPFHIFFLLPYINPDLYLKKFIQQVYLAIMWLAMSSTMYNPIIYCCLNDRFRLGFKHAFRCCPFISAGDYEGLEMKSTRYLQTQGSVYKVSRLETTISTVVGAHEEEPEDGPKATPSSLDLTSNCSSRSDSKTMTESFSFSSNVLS
Note: assay procedure not described here.

Chain of Cannabinoid receptor 1 (P21554 whole entry): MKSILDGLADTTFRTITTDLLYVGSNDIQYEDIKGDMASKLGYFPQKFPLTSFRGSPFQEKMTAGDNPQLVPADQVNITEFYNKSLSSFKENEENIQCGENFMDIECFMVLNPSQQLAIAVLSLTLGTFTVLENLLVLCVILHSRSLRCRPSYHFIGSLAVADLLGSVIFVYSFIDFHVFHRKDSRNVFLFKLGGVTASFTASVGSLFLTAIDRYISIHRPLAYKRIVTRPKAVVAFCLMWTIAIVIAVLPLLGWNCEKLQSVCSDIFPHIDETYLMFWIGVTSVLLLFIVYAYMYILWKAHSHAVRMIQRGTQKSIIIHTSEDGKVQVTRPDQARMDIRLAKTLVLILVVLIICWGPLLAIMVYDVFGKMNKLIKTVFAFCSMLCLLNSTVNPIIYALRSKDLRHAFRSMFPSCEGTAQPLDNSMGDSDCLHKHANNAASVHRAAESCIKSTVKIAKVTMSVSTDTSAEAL
Chain of Sodium channel protein type 5 subunit alpha (Q14524 whole entry): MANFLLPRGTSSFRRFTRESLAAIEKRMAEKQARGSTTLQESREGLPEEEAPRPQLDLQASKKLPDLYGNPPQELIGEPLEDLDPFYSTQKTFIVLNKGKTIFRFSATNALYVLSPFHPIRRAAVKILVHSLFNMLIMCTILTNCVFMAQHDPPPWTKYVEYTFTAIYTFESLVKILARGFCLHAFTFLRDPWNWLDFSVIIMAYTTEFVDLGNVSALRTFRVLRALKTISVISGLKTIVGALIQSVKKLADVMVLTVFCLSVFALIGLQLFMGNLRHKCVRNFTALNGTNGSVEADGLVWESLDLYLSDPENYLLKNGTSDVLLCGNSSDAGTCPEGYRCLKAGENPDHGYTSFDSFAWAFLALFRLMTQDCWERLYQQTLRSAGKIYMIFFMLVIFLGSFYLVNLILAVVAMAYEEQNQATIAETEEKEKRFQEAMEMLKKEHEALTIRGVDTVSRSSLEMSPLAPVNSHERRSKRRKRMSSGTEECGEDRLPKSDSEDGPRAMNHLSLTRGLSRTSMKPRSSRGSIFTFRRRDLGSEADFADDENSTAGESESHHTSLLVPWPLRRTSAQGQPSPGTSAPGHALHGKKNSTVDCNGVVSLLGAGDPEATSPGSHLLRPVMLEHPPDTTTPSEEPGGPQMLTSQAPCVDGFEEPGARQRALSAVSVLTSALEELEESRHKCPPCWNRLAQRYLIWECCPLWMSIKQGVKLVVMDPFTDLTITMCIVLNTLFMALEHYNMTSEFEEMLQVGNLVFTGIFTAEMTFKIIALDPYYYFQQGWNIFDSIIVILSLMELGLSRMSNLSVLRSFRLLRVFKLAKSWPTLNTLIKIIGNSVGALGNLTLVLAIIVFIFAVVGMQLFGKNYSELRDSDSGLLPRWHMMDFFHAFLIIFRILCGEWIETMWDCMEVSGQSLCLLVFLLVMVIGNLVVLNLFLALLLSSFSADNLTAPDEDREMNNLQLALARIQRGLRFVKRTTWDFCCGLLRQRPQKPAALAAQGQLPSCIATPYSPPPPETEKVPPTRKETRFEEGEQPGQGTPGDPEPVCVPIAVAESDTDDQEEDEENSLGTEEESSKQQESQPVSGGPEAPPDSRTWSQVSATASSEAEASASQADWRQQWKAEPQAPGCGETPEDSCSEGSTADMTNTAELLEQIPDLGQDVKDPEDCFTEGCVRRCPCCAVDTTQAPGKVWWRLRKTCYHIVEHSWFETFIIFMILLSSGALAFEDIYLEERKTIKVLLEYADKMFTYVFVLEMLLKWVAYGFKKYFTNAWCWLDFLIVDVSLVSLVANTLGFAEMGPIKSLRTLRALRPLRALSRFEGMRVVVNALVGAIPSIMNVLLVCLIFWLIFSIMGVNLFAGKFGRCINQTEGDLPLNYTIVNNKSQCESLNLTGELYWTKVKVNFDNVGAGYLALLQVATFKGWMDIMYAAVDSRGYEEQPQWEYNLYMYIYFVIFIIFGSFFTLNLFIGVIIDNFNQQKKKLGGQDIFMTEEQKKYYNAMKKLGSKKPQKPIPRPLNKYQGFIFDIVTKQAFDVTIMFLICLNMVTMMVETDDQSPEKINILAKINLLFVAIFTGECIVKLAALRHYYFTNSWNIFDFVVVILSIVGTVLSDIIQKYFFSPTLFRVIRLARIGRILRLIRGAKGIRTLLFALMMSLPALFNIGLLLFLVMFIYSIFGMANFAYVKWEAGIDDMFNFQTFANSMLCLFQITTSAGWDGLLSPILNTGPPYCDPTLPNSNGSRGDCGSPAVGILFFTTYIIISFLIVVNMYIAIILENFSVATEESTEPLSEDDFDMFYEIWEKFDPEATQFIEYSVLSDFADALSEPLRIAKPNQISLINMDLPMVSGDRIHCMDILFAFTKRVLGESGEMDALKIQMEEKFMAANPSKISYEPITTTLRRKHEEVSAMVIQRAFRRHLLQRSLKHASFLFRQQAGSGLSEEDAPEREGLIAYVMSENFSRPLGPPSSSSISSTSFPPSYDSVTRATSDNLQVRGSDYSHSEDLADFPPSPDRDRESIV

For orientation: AC50 means the concentration at which the activity in the assay is half-maximal. Take `CNS(=O)(=O)Cc1ccc2[nH]cc(CCN(C)C)c2c1`: the AC50 is greater than 10 µM in [1]; greater than 10 µM in [2]; greater than 30 µM in [3]; greater than 10 µM in test [4]; greater than 30 µM in test [5]; greater than 30 µM in test [6]. Also, the results for the AC50 in test [7], in test [8] and in [9] were greater than 30 µM, greater than 10 µM and 4.67 µM, respectively.
In test [10], `CC(=O)O[C@H]1CC[C@@]2(C)C(=CC[C@@H]3[C@@H]2CC[C@]2(C)C(c4cccnc4)=CC[C@@H]32)C1` [ABIRATERONE ACETATE] gave a concentration at half-maximal activity (AC50) greater than 30 µM.
`NCC[C@H](O)C(=O)N[C@@H]1C[C@H](N)[C@@H](O[C@H]2O[C@H](CN)[C@@H](O)[C@H](O)[C@H]2O)[C@H](O)[C@H]1O[C@H]1O[C@H](CO)[C@@H](O)[C@H](N)[C@H]1O` [AMIKACIN] came in with an AC50 in [11] greater than 10 µM.
For `NCC(=O)CCC(=O)O` [AMINOLEVULINIC ACID], the AC50 in test [5], in test [12] and in test [13] was greater than 30 µM in each case.
In test [10], `COC(=O)C1=C(C)NC(C)=C(C(=O)OC2CCCN(Cc3ccccc3)C2)C1c1cccc([N+](=O)[O-])c1` (stereo not drawn) [BENIDIPINE] returned an AC50 greater than 50 µM.
On to `C=CCC1(CC(C)C)C(=O)NC(=O)NC1=O` [BUTALBITAL], for which the AC50 in test [11] was greater than 10 µM.
With `O=C(O)C1=C(CSc2nnnn2CS(=O)(=O)O)CS[C@@H]2[C@H](NC(=O)[C@H](O)c3ccccc3)C(=O)N12` [CEFONICID], the half-maximal activity concentration (AC50) in test [11] was greater than 30 µM.
`CCN1CCN(C(=O)N[C@@H](C(=O)N[C@@H]2C(=O)N3C(C(=O)O)=C(CSc4nnnn4C)CS[C@H]23)c2ccc(O)cc2)C(=O)C1=O` [CEFOPERAZONE] had an AC50 in test [5] greater than 30 µM.
Take `COc1ccc2c3c1O[C@H]1[C@@H](O)C=C[C@H]4[C@@H](C2)N(C)CC[C@@]341` [CODEINE]: the AC50 in [1] is greater than 10 µM; in test [2] it was greater than 10 µM; in test [3] it was greater than 30 µM; in test [4], greater than 10 µM; in test [6], greater than 30 µM; in test [7], greater than 30 µM. In addition, the AC50 in [8] is greater than 10 µM; in [9] it was greater than 10 µM; in [10], greater than 30 µM; in test [14], greater than 10 µM.
Take `CCc1c(Cl)c(O)c(Cl)c(O)c1C(=O)O[C@H]1[C@H](O)[C@H](OC)[C@H](OC/C2=C\C=C\C[C@H](O)/C(C)=C/[C@H](CC)[C@@H](O[C@@H]3OC(C)(C)[C@@H](OC(=O)C(C)C)[C@H](O)[C@@H]3O)/C(C)=C/C(C)=C/C[C@@H]([C@@H](C)O)OC2=O)O[C@@H]1C` [FIDAXOMICIN]: the AC50 in test [11] is 25 µM; in test [1], greater than 10 µM; in [3], greater than 30 µM; in [4] it was greater than 10 µM; in [6], greater than 30 µM; in test [7], greater than 30 µM. This molecule returned an AC50 in [14] of 5.92 µM.
In the case of `CC(C)Cn1cnc2c(N)nc3ccccc3c21` [IMIQUIMOD], the AC50 in test [11] was greater than 10 µM.
For the molecule `CC(C)(C)c1cc(C(C)(C)C)c(NC(=O)c2c[nH]c3ccccc3c2=O)cc1O` [IVACAFTOR], the AC50 in [11] was greater than 30 µM; in test [1], greater than 10 µM.
Turning to `COC(=O)C1=C(C)NC(C)=C(C(=O)OC(C)(C)CN(C)CCC(c2ccccc2)c2ccccc2)C1c1cccc([N+](=O)[O-])c1` (stereo not drawn) [LERCANIDIPINE], the AC50 is greater than 30 µM in test [11] and greater than 50 µM in test [10].
Take `CCCc1nc(C(C)(C)O)c(C(=O)OCc2oc(=O)oc2C)n1Cc1ccc(-c2ccccc2-c2nnn[nH]2)cc1` [OLMESARTAN MEDOXOMIL]: the AC50 in [1] was greater than 10 µM; in test [2], greater than 10 µM; in [3], greater than 30 µM; in [4] it was greater than 10 µM; in test [6] it was greater than 50 µM; in [7], greater than 30 µM. Also, the AC50 in test [8], in test [9] and in [14] was greater than 10 µM in each case.
Regarding `N#Cc1ccc([C@H]2CCc3cncn32)c(F)c1` [OSILODROSTAT], the AC50 in [1], in [2], in [4], in test [8], in [9] and in test [14] was greater than 10 µM in each case.
Molecule `O=C(O)C[C@H](O)C[C@H](O)/C=C/c1c(C2CC2)nc2ccccc2c1-c1ccc(F)cc1` [PITAVASTATIN] displayed an AC50 in test [11] greater than 10 µM.
Take `Clc1ccc(CCCOCCCN2CCCCC2)cc1` [PITOLISANT]: the activity in test [10] was half-maximal at 32 µM (AC50).
`CCCN(CCC)C(=O)C(CCC(=O)O)NC(=O)c1ccccc1` (stereo not drawn) [PROGLUMIDE]: the AC50 in test [1] was greater than 10 µM; in [3], greater than 30 µM; in test [4] it was greater than 10 µM; in [6] it was greater than 30 µM; in [7], greater than 30 µM; in [14], greater than 10 µM.
Consider `COC(=O)[C@H]1[C@H]2C[C@@H]3c4[nH]c5cc(OC)ccc5c4CCN3C[C@H]2C[C@@H](OC(=O)/C=C/c2cc(OC)c(OC)c(OC)c2)[C@@H]1OC` [RESCINNAMINE], for which the half-maximal activity concentration (AC50) in test [11] is greater than 10 µM.
For `CN1C(=O)C(O)N=C(c2ccccc2)c2cc(Cl)ccc21` (stereo not drawn) [TEMAZEPAM], the AC50 is greater than 10 µM in test [1]; greater than 30 µM in test [3]; greater than 10 µM in test [4]; greater than 30 µM in test [6]; greater than 30 µM in test [7]; greater than 10 µM in test [14].
On to `C/C(O)=C(\C#N)C(=O)Nc1ccc(C(F)(F)F)cc1` [TERIFLUNOMIDE], for which the results for the AC50 in test [5] and in [10] were greater than 30 µM and greater than 50 µM, respectively.
The molecule `CC(CC(c1ccccc1)c1ccccc1)NC(C)(C)C` (stereo not drawn) [TERODILINE] returned an AC50 in test [10] of 8.65 µM.
As for `CN1CCN(CC/C=C2/c3ccccc3Sc3ccc(S(=O)(=O)N(C)C)cc32)CC1` [THIOTHIXENE], the AC50 is greater than 30 µM in [11]; greater than 10 µM in test [1]; greater than 10 µM in [2]; greater than 30 µM in test [3]; 0.78 µM in [4]; greater than 30 µM in test [6]. The AC50 was greater than 30 µM in test [7], 0.455 µM in test [8], 0.254 µM in test [9] and 3.84 µM in [14].
